Values quoted from earlier work as cited in PubChem BioAssay AID1259409 (Chemical Carcinogenesis Research Information System (CCRIS), 2018).

Tested on: rodent chemically induced tumor inhibition, incidence and multiplicity
Test: CCRIS tumor inhibitor studies

For C/C(=C\c1ccc(C(=O)O)cc1)c1ccc2c(c1)C(C)(C)CCC2(C)C, the “tumour outcome (control, treated, inhibition, significance)” value (Carcinogen: 7,12-DIMETHYLBENZ[A]ANTHRACENE, 57-97-6, Dose [Inhibitor]: 0.17 NMOL IN 0.2 ML ACETONE 1 HR PRIOR TO EACH PROMOTER DOSE FOR 12 WK (STUDY DURATION: 14 WK), Route [Inhibitor]: DERMAL, Species: MOUSE, Strain/Sex: SENCAR/FEMALE, Target Tissue: Type of Lesion: SKIN: PAPILLOMA, Dose [Carcinogen]: 200 NMOL IN 0.2 ML ACETONE ONCE, Promoter: 12-O-TETRADECANOYLPHORBOL-13-ACETATE, 16561-29-8) is listed as 100%, 100%, 0%, not calculated, the “tumour outcome (control, treated, inhibition, significance)” value (Carcinogen: 7,12-DIMETHYLBENZ[A]ANTHRACENE, 57-97-6, Dose [Inhibitor]: 0.17 NMOL IN 0.2 ML ACETONE 1 HR PRIOR TO EACH PROMOTER DOSE FOR 20 WK (STUDY DURATION: 22 WK), Route [Inhibitor]: DERMAL, Species: MOUSE, Strain/Sex: CD-1/FEMALE, Target Tissue: Type of Lesion: SKIN: PAPILLOMA, Dose [Carcinogen]: 200 NMOL IN 0.2 ML ACETONE ONCE, Promoter: 12-O-TETRADECANOYLPHORBOL-13-ACETATE, 16561-29-8) is listed as 94%, 80%, 15%, not calculated and the “tumour outcome (control, treated, inhibition, significance)” value (Carcinogen: 7,12-DIMETHYLBENZ[A]ANTHRACENE, 57-97-6, Dose [Inhibitor]: 1.7 NMOL IN 0.2 ML ACETONE 1 HR PRIOR TO EACH PROMOTER DOSE FOR 12 WK (STUDY DURATION: 14 WK), Route [Inhibitor]: DERMAL, Species: MOUSE, Strain/Sex: SENCAR/FEMALE, Target Tissue: Type of Lesion: SKIN: PAPILLOMA, Dose [Carcinogen]: 200 NMOL IN 0.2 ML ACETONE ONCE, Promoter: 12-O-TETRADECANOYLPHORBOL-13-ACETATE, 16561-29-8) is listed as 100%, 78%, 22%, not calculated. The “tumour outcome (control, treated, inhibition, significance)” value (Carcinogen: 7,12-DIMETHYLBENZ[A]ANTHRACENE, 57-97-6, Dose [Inhibitor]: 1.7 NMOL IN 0.2 ML ACETONE 1 HR PRIOR TO EACH PROMOTER DOSE FOR 20 WK (STUDY DURATION: 22 WK), Route [Inhibitor]: DERMAL, Species: MOUSE, Strain/Sex: CD-1/FEMALE, Target Tissue: Type of Lesion: SKIN: PAPILLOMA, Dose [Carcinogen]: 200 NMOL IN 0.2 ML ACETONE ONCE, Promoter: 12-O-TETRADECANOYLPHORBOL-13-ACETATE, 16561-29-8) was 94%, 31%, 67%, not calculated and the “tumour outcome (control, treated, inhibition, significance)” value (Carcinogen: 7,12-DIMETHYLBENZ[A]ANTHRACENE, 57-97-6, Dose [Inhibitor]: 17 NMOL IN 0.2 ML ACETONE 1 HR PRIOR TO EACH PROMOTER DOSE FOR 12 WK (STUDY DURATION: 14 WK), Route [Inhibitor]: DERMAL, Species: MOUSE, Strain/Sex: SENCAR/FEMALE, Target Tissue: Type of Lesion: SKIN: PAPILLOMA, Dose [Carcinogen]: 200 NMOL IN 0.2 ML ACETONE ONCE, Promoter: 12-O-TETRADECANOYLPHORBOL-13-ACETATE, 16561-29-8) was 100%, 0%, 100%, not calculated.
In the case of C[C@@]12C=Cc3occc3[C@H]1CC[C@@]13C[C@@H](CC[C@H]12)[C@@](O)(CO)C3, the “tumour outcome (control, treated, inhibition, significance)” value (Carcinogen: 7,12-DIMETHYLBENZ[A]ANTHRACENE, 57-97-6, Dose [Inhibitor]: 0, 0.2 G/KG OF DIET OF 50:50 MIXTURE OF KAHWEOL AND CAFESTOL FOR 14 WK BEGINNING 1 WK PRIOR TO CARCINOGEN TREATMENT (STU, Route [Inhibitor]: ORAL, Species: HAMSTER, Strain/Sex: SYRIAN/FEMALE, Target Tissue: Type of Lesion: BUCCAL POUCH: TUMOR, Dose [Carcinogen]: 0.5% SOLUTION IN MINERAL OIL PAINTED ON LEFT BUCCAL POUCH 3/WK FOR 13 WK, Promoter: NONE USED) is listed as 14/14 (100%), 14/14 (100%), 0%, not significant and the “tumour outcome (control, treated, inhibition, significance)” value (Carcinogen: 7,12-DIMETHYLBENZ[A]ANTHRACENE, 57-97-6, Dose [Inhibitor]: 0, 2 G/KG OF DIET OF 50:50 MIXTURE OF KAHWEOL AND CAFESTOL FOR 14 WK BEGINNING 1 WK PRIOR TO CARCINOGEN TREATMENT (STUDY, Route [Inhibitor]: ORAL, Species: HAMSTER, Strain/Sex: SYRIAN/FEMALE, Target Tissue: Type of Lesion: BUCCAL POUCH: TUMOR, Dose [Carcinogen]: 0.5% SOLUTION IN MINERAL OIL PAINTED ON LEFT BUCCAL POUCH 3/WK FOR 13 WK, Promoter: NONE USED) is listed as 14/14 (100%), 14/15 (93%), 7%, not significant.
In the case of CC1=C(/C=C/C(C)=C/C=C/C(C)=C\C(=O)Nc2ccc(O)cc2)C(C)(C)CCC1, the “tumour outcome (control, treated, inhibition, significance)” value (Carcinogen: N-BUTYL-N-(4-HYDROXYBUTYL)NITROSAMINE, 3817-11-6, Dose [Inhibitor]: 1.5 MMOL/KG DIET DAILY FOR 153 D STARTING ONE WK AFTER THE FINAL CARCINOGEN DOSE (STUDY DURATION: 210 D), Route [Inhibitor]: ORAL, Species: MOUSE, Strain/Sex: BDF/MALE, Target Tissue: Type of Lesion: URINARY BLADDER: TRANSITIONAL CELL CARCINOMA, Dose [Carcinogen]: 7.5 MG 1/WK FOR 8 WK, Promoter: NONE USED) is listed as 35/99 (35%), 21/99 (21%), 40%, p<0.05 and the “tumour outcome (control, treated, inhibition, significance)” value (Carcinogen: N-BUTYL-N-(4-HYDROXYBUTYL)NITROSAMINE, 3817-11-6, Dose [Inhibitor]: 1.5 MMOL/KG/D IN DIET FOR 153 D STARTING 1 WK POST CARCINOGEN TREATMENT (STUDY DURATION: 210 D), Route [Inhibitor]: ORAL, Species: MOUSE, Strain/Sex: BDF/MALE, Target Tissue: Type of Lesion: URINARY BLADDER: TRANSITIONAL CELL CARCINOMA, Dose [Carcinogen]: 7.5 MG 1/WK FOR 8 WK, Promoter: NONE USED) is listed as 35/99 (35%), 21/99 (21%), 40%, p<0.05.
For O=C1NS(=O)(=O)c2ccccc21, the “tumour outcome (control, treated, inhibition, significance)” value (Carcinogen: N-BUTYL-N-(4-HYDROXYBUTYL)NITROSAMINE, 3817-11-6, Dose [Inhibitor]: 0.5% DIET DAILY FOR 34 WK STARTING AT COMPLETION OF CARCINOGEN TREATMENT (STUDY DURATION: 38 WK), Route [Inhibitor]: ORAL, Species: RAT, Strain/Sex: F344/MALE, Target Tissue: Type of Lesion: URINARY BLADDER: PAPILLOMA, Dose [Carcinogen]: 0.01% IN DRINKING WATER FOR 4 WK, Promoter: NONE USED) is given as 33%, 33%, 0%, not significant and the “tumour outcome (control, treated, inhibition, significance)” value (Carcinogen: N-BUTYL-N-(4-HYDROXYBUTYL)NITROSAMINE, 3817-11-6, Dose [Inhibitor]: 5% DIET DAILY FOR 34 WK STARTING AT COMPLETION OF CARCINOGEN TREATMENT (STUDY DURATION: 38 WK), Route [Inhibitor]: ORAL, Species: RAT, Strain/Sex: F344/MALE, Target Tissue: Type of Lesion: URINARY BLADDER: PAPILLOMA, Dose [Carcinogen]: 0.01% IN DRINKING WATER FOR 4 WK, Promoter: NONE USED) is given as 33%, 20%, 39%, not significant.
For O=C(O)[C@H](O)[C@@H](O)[C@H](O)[C@H](O)CO, the “tumour outcome (control, treated, inhibition, significance)” value (Carcinogen: 1,2-DIMETHYLHYDRAZINE DIHYDROCHLORIDE, 306-37-6, Dose [Inhibitor]: 0, 1% IN DIET FOR 8 MO BEGINNING 2 WK POST CARCINOGEN (STUDY DURATION: 8 MO, 2 WK), Route [Inhibitor]: ORAL, Species: RAT, Strain/Sex: F344/MALE, Target Tissue: Type of Lesion: COLON: TUMOR, Dose [Carcinogen]: 200 MG/KG IN 0.9% NACL ONCE) is listed as 15/27 (56%), 17/28 (61%), -9%, not significant and the “tumour outcome (control, treated, inhibition, significance)” value (Carcinogen: 1,2-DIMETHYLHYDRAZINE DIHYDROCHLORIDE, 306-37-6, Dose [Inhibitor]: 0, 2% IN DIET FOR 8 MO BEGINNING 2 WK POST CARCINOGEN (STUDY DURATION: 8 MO, 2 WK), Route [Inhibitor]: ORAL, Species: RAT, Strain/Sex: F344/MALE, Target Tissue: Type of Lesion: COLON: TUMOR, Dose [Carcinogen]: 200 MG/KG IN 0.9% NACL ONCE) is listed as 15/27 (56%), 7/17 (41%), 27%, not significant.
For O=c1cc(-c2ccc(O)cc2)oc2cc(O)cc(O)c12, the “tumour outcome (control, treated, inhibition, significance)” value (Carcinogen: 7,12-DIMETHYLBENZ[A]ANTHRACENE, 57-97-6, Dose [Inhibitor]: 0, 5 UMOL IN 0.2 ML ACETONE/DMSO (9:1) 2/WK FOR 20 WK APPLIED 30 MIN PRIOR TO EACH PROMOTER DOSE (STUDY DURATION: 30 WK), Route [Inhibitor]: DERMAL, Species: MOUSE, Strain/Sex: SENCAR/FEMALE, Target Tissue: Type of Lesion: SKIN: PAPILLOMA, Dose [Carcinogen]: 10 NMOL IN 0.2 ML ACETONE ONCE, Promoter: 12-O-TETRADECANOYLPHORBOL-13-ACETATE, 16561-29-8) is given as 92%, 87%, 5%, not significant, the “tumour outcome (control, treated, inhibition, significance)” value (Carcinogen: UV-B IRRADIATION, Dose [Inhibitor]: 0, 5 UMOL IN 0.2 ML DMSO:ACETONE (1:9) 2.5-3 HR PRIOR TO EACH UV-B EXPOSURE (STUDY DURATION: 55 WK), Route [Inhibitor]: DERMAL, Species: MOUSE, Strain/Sex: SKH-1/FEMALE, Target Tissue: Type of Lesion: SKIN: SQUAMOUS CELL CARCINOMA, Dose [Carcinogen]: 745 MJ/CM2 5 D/WK FOR 11 WK, Promoter: NONE USED) is given as 81%, 67%, 17%, not significant and the “tumour outcome (control, treated, inhibition, significance)” value (Carcinogen: UV-B IRRADIATION, Dose [Inhibitor]: 0, 10 UMOL IN 0.2 ML DMSO:ACETONE (1:9) 2.5-3 HR PRIOR TO EACH UV-B EXPOSURE (STUDY DURATION: 55 WK), Route [Inhibitor]: DERMAL, Species: MOUSE, Strain/Sex: SKH-1/FEMALE, Target Tissue: Type of Lesion: SKIN: SQUAMOUS CELL CARCINOMA, Dose [Carcinogen]: 745 MJ/CM2 5 D/WK FOR 11 WK, Promoter: NONE USED) is given as 81%, 39%, 52%, not calculated.
